Experimental data: US10548979B2, “Light-activated compositions and methods using the same” (THE REGENTS OF THE UNIVERSITY OF COLORADO, A BODY CORPORATE, priority 2015, dated 2020)

Experiments:
[1] = test system: MDR E. coli; experiment: Antibiotic IC50 measurement (Resazurin) in clinical isolates; format: cell-based, Escherichia coli; conditions: 24 h growth
Description: Overnight cultures of clinical isolates were diluted to a 0.5 McFarland standard in CAMHB with respective test concentration of antibiotic. Cultures were grown for 24 h at 37° C. with 225 rpm shaking. After 24 h of growth, Resazurin sodium salt (Sigma Aldrich) solution was added and the reaction was monitored for fluorescence measuring every 5 min for 4 h at 37° C. with 225 rpm shaking using 485/610 nm filters. The slope of Resazurin fluorescence was used a quantitative measure of cell metabolism. The IC50 was determined as the concentration of antibiotic which caused a 50% reduction in slope compared to the same biological replicate in no treatment.

[2] = test system: MDR S. typhimurium; experiment: as above; format: cell-based, Salmonella typhimurium; conditions: 24 h growth
Description: Overnight cultures of clinical isolates were diluted to a 0.5 McFarland standard in CAMHB with respective test concentration of antibiotic. […] The slope of Resazurin fluorescence was used a quantitative measure of cell metabolism.

[3] = test system: ESBL K. pneumoniae; experiment: Combinatorial experiments CdTe-2.4 with antibiotic, growth (optical density); format: cell-based, Klebsiella pneumoniae; conditions: breakpoint amount of streptomycin, without CdTe-2.4
Description: Five antibiotic concentrations were selected for each strain, so that the levels tested would be below the IC50, near the CLSI or defined breakpoint, and near the IC50. Concentrations of CdTe-2.4 were held constant for all strains at 12.5 nM, 25 nM, and 50 nM. Using these metrics, three biological replicates were tested from each strain with 15 test conditions as well as monotherapy controls and a no treatment condition. Clinical strains were diluted 1:100 from overnight into test condition and grown at 37° C. with 225 rpm. Optical density was measured every 30 min for the first 3 h and every hour subsequently until 8 h. After 8 h of growth, Resazurin sodium salt solution was added and the reaction was monitored for fluorescence measuring every 5 min for 4 h at 37° C. with 225 rpm shaking using 485/610 nm filters. The slope of Resazurin fluorescence was used a quantitative measure of cell metabolism.

SMILES	sensitivity to antibiotic (IC50 versus CLSI or breakpoint) [1]	sensitivity to antibiotic (IC50 versus CLSI or breakpoint) [2]	effect of antibiotic alone on growth [3]
O=C(N[C@H](CO)[C@H](O)c1ccc([N+](=O)[O-])cc1)C(Cl)Cl [chloramphenicol]	sensitive	sensitive	
[H]/N=C(/N)N[C@H]1[C@H](O)[C@@H](O)[C@H](O[C@@H]2O[C@@H](C)[C@](O)(C=O)[C@H]2O[C@@H]2O[C@@H](CO)[C@H](O)[C@@H](O)[C@@H]2NC)[C@@H](N/C(N)=N\[H])[C@@H]1O [streptomycin]			previously ineffective
